Data on one substance can be found in PMC12073449, “Development of a Mechanism of Action-Reflective Cell-Based Reporter Gene Assay for Measuring Bioactivities of Therapeutic Glucagon-like Peptide-2 Analogues” (Molecules, 2025).

Ends that are not written are not given here.

The target of data set [1] is T1, human GLP-2R (Homo sapiens, UniProt O95838).
T1 construct: The full-length cDNA of human GLP-2R was synthesized, cloned, and inserted into the pLU.cmv.Zeo vector; expressed in transfected cells
T1 sequence (O95838 1-553): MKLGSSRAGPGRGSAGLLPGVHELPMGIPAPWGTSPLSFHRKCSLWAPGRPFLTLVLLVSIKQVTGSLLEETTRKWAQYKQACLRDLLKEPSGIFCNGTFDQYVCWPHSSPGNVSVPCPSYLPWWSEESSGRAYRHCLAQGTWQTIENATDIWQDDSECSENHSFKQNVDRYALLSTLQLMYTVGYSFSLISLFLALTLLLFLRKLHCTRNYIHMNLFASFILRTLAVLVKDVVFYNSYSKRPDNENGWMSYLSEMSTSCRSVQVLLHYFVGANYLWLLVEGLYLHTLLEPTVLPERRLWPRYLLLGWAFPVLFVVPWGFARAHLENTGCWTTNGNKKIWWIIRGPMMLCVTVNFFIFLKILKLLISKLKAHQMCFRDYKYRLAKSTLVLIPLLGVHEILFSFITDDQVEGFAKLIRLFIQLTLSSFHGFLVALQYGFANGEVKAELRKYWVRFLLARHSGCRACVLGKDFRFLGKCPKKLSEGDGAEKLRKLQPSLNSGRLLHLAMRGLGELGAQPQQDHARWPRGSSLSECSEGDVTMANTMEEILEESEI
Description: Cell-based reporter gene assay (RGA), HEK293-GLP-2R-Luc, CRE-luciferase. Conditions: diluted to 2.665 µmol/L and further 7-fold for 10 concentration points; HEK293-GLP-2R-Luc cells. The method, then: To generate a HEK293 cell line stably expressing CRE-driven luciferase and GLP2R, the CRE-miniP.Luc virus-containing cell supernatants were diluted in DMEM in the presence of 8 µg/mL polybrene before being added to HEK293 cells. To obtain a stable cell pool, the medium was replaced 48 h after incubation, with fresh culture medium containing 3 µg/mL puromycin. After about 3 weeks selection, the cell pool was then further infected with pLU.cmv-GLP2R.Zeo virus and selected with 200 µg/mL Zeocin and 3 µg/mL puromycin. […] The expression of GLP-2R was examined using flow cytometry. After that, the positive clones were routinely maintained in selective medium.
Cell-based RGA has been described previously. Briefly, 50 microliters of HEK293-GLP-2R-Luc cells were seeded into a 96-well white plate at a density of 4 × 10^4 cells/well. The cells were then incubated at 37 °C with 5% CO2 overnight (16 to 24 h). […] After 5 h of incubation, 100 µL of britelite plus reporter Gene Assay reagent were added to each well and mixed thoroughly under subdued light conditions for 5 min. The RLU signal was then determined with a SpectraMax M5e multimode plate reader (Molecular Devices, San Jose, CA, USA).
The RGA was validated as described previously. […] Samples of each potency level were tested by two analysts 8 times in total. […] The response of HEK293-GLP2R-Luc cells to these samples were determined as illustrated in 4.6.
The lower/upper asymptote was determined by the ratio of the top asymptote to the bottom asymptote when RGA best fit the 4PL model. The correlation coefficient (R^2), deviations from parallelism, and the regression in the 4PL model were estimated using SoftMax® Pro 7.1 software (Molecular Devices, San Jose, CA, USA). Specifically, a linear regression with an R^2 value no less than 0.98 was considered to have a very good fit. Additionally, a p-value below 0.01 was regarded as statistically significant. […] All the dose-response curves were plotted using GraphPad Prism® software 8.0.2 (GraphPad, Boston, MA, USA).
A general note: A reporter such as luciferase makes a cellular process visible.

Details of data set [2]: method as in PMID 35933503. Conditions: general statement; cited from earlier work. From the text: The diverse functions of GLP-2 highlight its significance in maintaining intestinal health and physiology. As a naturally occurring gut hormone, GLP-2 not only promotes nutrient absorption by decreasing intestinal motility and permeability, but also plays a pivotal role in stimulating intestinal epithelial cell growth and function. This multifaceted action of GLP-2 is crucial for the maintenance of the intestinal barrier, which is essential for preventing the translocation of harmful bacteria and toxins into the bloodstream.

For “HGEGTFSSELATILDALAARDFINWLIATKITDKKKKKK-NH2 [glepaglutide]”, the “dose-response curve in RGA” value in data set [1] is reported as “induced sigmoid curves similar to those induced by teduglutide”. In data set [2], the bioactivity entry is recorded as “enhanced bioactivities” and the half-life entry is listed as “extended half-lives”.
